Measured values published in ChEMBL document CHEMBL1201862, “PubChem BioAssay data set” (2004).
Active and inactive are the calls of the source.

How the values were obtained:
[1] = biological target: T1, Heat shock factor protein 1 (Mus musculus, UniProt P38532); assay: inhibition of MG132-induced HSE-luciferase signal, confirmation, cell-based, NIH3T3, luminescence, dose retest (AID 2382); type: functional;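 also: NIH3T3 fibroblasts with HSF1-driven luciferase reporter stressed by proteasome inhibitor MG132; luminescence from HSF1-driven luciferase expression after 8 hours of MG132 stress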
T1 sequence (P38532 whole entry): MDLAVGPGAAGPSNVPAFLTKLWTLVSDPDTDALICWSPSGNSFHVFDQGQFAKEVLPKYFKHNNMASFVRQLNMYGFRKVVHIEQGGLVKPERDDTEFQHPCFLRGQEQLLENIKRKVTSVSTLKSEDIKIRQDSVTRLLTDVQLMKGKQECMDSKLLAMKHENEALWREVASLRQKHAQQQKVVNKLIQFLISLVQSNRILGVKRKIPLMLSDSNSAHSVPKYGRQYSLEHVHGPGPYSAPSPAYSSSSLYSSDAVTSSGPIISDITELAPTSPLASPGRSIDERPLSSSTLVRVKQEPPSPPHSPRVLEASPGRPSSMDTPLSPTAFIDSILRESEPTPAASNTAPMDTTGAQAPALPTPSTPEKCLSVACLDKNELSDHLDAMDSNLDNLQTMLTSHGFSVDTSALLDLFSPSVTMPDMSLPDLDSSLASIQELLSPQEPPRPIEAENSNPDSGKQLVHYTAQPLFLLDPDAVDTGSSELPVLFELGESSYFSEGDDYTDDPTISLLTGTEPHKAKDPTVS

[2] = biological target: Luciferin 4-monooxygenase (Photinus pyralis, UniProt P08659); assay: firefly luciferase enzyme inhibitors, dose response, biochemical, luminescence (AID 1891)
[3] = Luminescence Cell-Based Dose Confirmation HTS to Identify Inhibitors of Platelet Dense Granule Release. [Related pubchem assays: 1663 (Primary HTS), 1678 (Summary of Project)]; type: functional
[4] = Luminescence-based counterscreen assay for KLF5 inhibitors: dose response cell-based high throughput screening assay to identify cytotoxic compounds using the IEC-6 intestinal epithelial cell line. [Related pubchem assays: 1700 (Primary screen.), 1834 (Confirmation screen.), 1858 (Summary AID.), 1905 (Counterscreen.)]; type: functional
[5] = biological target: COUP transcription factor 2 (Homo sapiens, UniProt P24468); assay: Luminescence-based cell-based high throughput dose response assay to identify inhibitors of COUP-TFII (NR2F2).; type: functional;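 also: HEK293 cells transiently cotransfected with COUP-TFII expression vector and reporter; luciferase reporter luminescence driven by COUP-TFII from the pX2-168 reporter plasmid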
HEK293 = assay: HEK293T cell cytotoxicity, dose response, cytotoxicity control, ATP luminescence, cherry-pick samples (AID 687005); type: functional, cell-based; conditions: Homo sapiens;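 also: cells exposed to compound for 48 hours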
[6] = HEK293 Cytotoxicity Assay Measured in Cell-Based System Using Plate Reader - 7071-01_Inhibitor_Dose_CherryPick_Activity_Set2.; type: functional
[7] = system: Streptococcus sp. 'group A'; assay: growth inhibition of control SK(-) GAS strain, dose response, counter-screen for streptokinase expression inhibitor project, luminescence, kanamycin, BacTiterGlo, confirmation (AID 1900); type: functional, organism-based
Streptokinase A = biological target: T2, Streptokinase A (Streptococcus pyogenes serotype M1, UniProt P10520); assay: S. pyogenes streptokinase expression inhibitors, potency, dose response, plasminogen activation absorbance, OD405 (AID 1914); type: functional, Streptococcus pyogenes M1 GAS;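 also: secreted streptokinase activity via plasminogen activation per viability signal from cell pellet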
T2 sequence (P10520 whole entry): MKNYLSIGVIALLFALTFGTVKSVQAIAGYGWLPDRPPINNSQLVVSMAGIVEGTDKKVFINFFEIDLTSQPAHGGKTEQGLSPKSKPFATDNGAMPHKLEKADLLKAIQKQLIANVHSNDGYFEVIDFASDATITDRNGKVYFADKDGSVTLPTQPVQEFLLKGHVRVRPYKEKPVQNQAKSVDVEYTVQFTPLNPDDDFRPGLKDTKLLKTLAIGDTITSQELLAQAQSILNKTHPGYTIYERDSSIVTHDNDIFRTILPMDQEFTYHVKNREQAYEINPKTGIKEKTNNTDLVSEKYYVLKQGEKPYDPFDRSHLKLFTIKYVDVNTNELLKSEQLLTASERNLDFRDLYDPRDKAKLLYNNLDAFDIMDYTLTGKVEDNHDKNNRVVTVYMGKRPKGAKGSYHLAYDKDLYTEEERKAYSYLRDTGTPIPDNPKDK

Streptococcus = assay: Group A Streptococcus viability loss, dose response, counter-screen for streptokinase expression inhibitor project, luminescence, BacTiterGlo (AID 1915); type: functional, organism-based;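 also: potency for reduction of bacterial viability or growth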
Caspase-3 = biological target: T3, Caspase-3 (Homo sapiens, UniProt P42574); type: functional;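 also: Dose-response selectivity test against caspase-3 for candidate inhibitors of sentrin-specific proteases (SENPs)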
T3 sequence (P42574 whole entry): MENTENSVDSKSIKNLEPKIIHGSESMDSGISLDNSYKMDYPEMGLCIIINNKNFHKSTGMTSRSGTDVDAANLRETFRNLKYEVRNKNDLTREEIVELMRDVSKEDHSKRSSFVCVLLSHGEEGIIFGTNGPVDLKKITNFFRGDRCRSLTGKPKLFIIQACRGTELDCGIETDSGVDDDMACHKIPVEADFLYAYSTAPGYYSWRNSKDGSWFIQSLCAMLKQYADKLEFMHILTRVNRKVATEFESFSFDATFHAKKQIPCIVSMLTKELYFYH

[8] = biological target: T4, Sentrin-specific protease 7 (Homo sapiens, UniProt Q9BQF6); type: functional;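 also: Luminescence-based dose-response confirmation of ultra-high-throughput screening hits, measuring inhibition of SENP7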
T4 sequence (Q9BQF6 whole entry): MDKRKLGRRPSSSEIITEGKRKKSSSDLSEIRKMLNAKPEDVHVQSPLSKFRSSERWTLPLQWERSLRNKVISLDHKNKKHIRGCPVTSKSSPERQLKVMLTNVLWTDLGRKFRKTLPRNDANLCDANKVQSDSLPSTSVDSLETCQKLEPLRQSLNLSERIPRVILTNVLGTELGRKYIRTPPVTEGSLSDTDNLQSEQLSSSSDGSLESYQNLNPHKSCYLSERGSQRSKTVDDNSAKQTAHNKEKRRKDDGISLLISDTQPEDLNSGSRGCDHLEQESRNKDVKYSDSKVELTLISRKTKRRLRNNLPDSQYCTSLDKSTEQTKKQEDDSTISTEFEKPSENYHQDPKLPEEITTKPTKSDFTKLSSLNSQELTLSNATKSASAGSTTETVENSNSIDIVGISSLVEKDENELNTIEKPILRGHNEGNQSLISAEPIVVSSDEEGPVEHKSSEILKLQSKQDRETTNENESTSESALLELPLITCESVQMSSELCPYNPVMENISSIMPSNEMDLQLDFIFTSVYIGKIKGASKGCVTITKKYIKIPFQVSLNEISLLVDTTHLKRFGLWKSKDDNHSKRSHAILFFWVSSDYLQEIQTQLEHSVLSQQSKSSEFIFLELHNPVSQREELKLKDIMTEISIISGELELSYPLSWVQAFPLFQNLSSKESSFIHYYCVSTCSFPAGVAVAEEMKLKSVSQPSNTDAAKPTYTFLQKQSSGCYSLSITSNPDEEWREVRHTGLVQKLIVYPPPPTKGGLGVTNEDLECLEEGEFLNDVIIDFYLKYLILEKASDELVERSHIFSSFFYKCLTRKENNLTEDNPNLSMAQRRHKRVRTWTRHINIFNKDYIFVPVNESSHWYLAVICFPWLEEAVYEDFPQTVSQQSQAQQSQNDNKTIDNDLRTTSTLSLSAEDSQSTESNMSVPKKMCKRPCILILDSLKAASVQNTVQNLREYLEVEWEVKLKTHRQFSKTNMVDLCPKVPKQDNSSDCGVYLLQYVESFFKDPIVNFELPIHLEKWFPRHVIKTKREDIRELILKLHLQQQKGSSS

[9] = biological target: T5, Sentrin-specific protease 6 (Homo sapiens, UniProt Q9GZR1); type: functional;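 also: Luminescence-based dose-response confirmatory assay of SENP6 inhibition, following up an ultra-high-throughput screen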
T5 sequence (Q9GZR1 whole entry): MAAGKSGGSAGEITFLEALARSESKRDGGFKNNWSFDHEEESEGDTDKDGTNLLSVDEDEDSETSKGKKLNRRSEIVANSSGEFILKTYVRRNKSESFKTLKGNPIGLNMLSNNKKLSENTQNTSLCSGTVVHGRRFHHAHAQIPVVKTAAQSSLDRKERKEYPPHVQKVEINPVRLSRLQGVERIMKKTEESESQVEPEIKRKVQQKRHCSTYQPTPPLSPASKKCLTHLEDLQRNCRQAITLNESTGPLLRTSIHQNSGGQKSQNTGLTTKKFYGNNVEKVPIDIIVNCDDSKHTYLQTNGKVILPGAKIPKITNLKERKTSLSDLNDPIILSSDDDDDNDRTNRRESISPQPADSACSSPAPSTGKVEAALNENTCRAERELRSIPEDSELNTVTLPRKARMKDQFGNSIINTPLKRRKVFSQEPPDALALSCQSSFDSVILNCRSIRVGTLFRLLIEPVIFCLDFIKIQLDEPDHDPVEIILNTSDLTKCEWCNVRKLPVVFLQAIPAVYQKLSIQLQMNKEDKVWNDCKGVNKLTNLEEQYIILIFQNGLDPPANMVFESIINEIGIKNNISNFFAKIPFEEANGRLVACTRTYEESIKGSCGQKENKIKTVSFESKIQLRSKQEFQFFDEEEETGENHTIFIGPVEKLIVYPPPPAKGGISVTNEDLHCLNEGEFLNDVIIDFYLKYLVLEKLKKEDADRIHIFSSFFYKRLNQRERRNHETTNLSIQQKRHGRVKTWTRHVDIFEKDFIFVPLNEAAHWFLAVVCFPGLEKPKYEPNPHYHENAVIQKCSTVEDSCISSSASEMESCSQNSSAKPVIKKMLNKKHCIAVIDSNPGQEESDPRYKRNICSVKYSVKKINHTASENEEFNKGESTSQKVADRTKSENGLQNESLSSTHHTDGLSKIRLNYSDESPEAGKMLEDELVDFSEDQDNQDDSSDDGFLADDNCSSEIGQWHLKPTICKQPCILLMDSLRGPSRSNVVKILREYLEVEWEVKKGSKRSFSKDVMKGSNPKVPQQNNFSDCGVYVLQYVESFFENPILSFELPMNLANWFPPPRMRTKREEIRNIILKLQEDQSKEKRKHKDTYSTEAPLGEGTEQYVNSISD

[10] = biological target: T6, Sentrin-specific protease 8 (Homo sapiens, UniProt Q96LD8); type: functional;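 also: luminescence read-out of SENP8 inhibition, dose-response confirmation following an ultra-high-throughput screen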
T6 sequence (Q96LD8 whole entry): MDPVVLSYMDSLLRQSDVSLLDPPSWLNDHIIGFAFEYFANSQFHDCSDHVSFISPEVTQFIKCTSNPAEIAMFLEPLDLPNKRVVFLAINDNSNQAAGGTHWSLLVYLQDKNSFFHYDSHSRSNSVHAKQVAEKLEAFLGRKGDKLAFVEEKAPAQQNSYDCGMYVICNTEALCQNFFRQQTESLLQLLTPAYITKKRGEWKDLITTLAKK

[11] = biological target: T7, Oxysterols receptor LXR-beta (Homo sapiens, UniProt P55055); type: functional, cell-based;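 also: agonist activity at LXR measured by a cell-based luminescence readout across a dose range, run as a counterscreen for daf-12 agonists; HEK293 cells with Gal4-LXR fusion and GAL4-driven luciferase reporter; potency for activation of Gal4-LXR reporter so compounds are agonists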
T7 sequence (P55055 whole entry): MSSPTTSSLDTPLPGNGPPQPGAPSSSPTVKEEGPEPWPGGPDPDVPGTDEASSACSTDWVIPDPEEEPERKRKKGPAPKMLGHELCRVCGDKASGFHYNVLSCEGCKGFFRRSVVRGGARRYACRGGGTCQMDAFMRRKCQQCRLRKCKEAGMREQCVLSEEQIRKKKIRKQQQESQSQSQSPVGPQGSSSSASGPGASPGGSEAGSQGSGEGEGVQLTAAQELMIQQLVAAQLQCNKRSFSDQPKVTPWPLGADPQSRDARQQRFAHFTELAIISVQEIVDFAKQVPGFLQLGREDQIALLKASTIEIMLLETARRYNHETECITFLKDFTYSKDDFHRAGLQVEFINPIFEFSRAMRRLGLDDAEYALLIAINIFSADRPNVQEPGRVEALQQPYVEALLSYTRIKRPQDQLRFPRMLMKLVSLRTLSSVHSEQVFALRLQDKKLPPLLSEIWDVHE

[12] = Shn3 3'UTR reporter inhibitors, dose response, cell-based, Clone20 osteoblasts, firefly luciferase, cherry-picked (AID 624132); type: functional;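 also: firefly luciferase luminescence from reporter carrying the Shn3 3'UTR in osteoblasts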
[13] = HepG2 cell cytotoxicity, dose response, cytotoxicity control for Shn3 inhibitor project, CellTiter-Glo, cherry-picked (AID 624134); type: functional, cell-based
[14] = control 3'UTR Renilla luciferase suppression, dose response, counter-screen for Shn3 inhibitor project, cell-based, Clone20-Shn3RL, cherry-picked (AID 624133); type: functional

Sequence of COUP transcription factor 2 (P24468 whole entry): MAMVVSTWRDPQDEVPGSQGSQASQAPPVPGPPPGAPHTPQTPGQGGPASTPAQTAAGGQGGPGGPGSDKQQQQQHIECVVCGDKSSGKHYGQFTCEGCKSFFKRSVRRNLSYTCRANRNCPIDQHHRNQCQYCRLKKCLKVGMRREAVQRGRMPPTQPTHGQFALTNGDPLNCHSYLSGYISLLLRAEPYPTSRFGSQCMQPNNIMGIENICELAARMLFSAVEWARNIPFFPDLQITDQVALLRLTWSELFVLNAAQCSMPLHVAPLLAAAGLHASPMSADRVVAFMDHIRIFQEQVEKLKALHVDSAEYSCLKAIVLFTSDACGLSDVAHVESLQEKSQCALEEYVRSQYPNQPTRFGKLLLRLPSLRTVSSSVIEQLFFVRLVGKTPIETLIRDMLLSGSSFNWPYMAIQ
Sequence of Luciferin 4-monooxygenase (P08659 whole entry): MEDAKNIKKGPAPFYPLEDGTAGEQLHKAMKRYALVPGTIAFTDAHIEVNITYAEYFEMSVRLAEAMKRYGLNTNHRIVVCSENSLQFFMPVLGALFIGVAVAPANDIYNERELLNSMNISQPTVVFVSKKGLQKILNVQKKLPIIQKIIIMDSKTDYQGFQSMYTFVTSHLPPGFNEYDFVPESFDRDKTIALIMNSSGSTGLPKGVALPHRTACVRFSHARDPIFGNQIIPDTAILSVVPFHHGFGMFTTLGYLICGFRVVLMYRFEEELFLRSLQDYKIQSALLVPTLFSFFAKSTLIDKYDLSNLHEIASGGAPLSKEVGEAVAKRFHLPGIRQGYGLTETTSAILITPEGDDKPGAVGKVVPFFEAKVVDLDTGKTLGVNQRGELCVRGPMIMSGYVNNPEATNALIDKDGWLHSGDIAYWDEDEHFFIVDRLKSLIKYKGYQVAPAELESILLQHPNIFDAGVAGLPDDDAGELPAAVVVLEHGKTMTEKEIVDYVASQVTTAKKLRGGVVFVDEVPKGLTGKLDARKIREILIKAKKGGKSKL

In the case of `COc1ccc(C(=O)Nc2ccccc2C(=O)N/N=C/c2ccc(O)c(OC)c2)cc1`, the EC50 [1] is reported as < 0.16 µM (active), the EC50 [2] is reported as 0.149 µM (active) and the EC50 [3] is reported as 0.156 µM (active). The IC50 [4] was > 39.8 µM (not active) and the IC50 [5] was > 9.49 µM (active).
In the case of `COc1cccc(S(=O)(=O)Nc2ccc3c(c2)[C@@H]2C[C@@H](CC(=O)NCc4cccc(F)c4)O[C@H](CO)[C@@H]2O3)c1`, the AC50 (HEK293) is reported as 27.7 µM (active) and the AC50 [6] is reported as 27.7 µM (active).
For `O=c1c2cc(-c3ccccc3)sc2nc2n1CCC2`, the EC50 [7] was 11.3 µM (active), the EC50 (Streptokinase A) was > 150 µM (not active) and the EC50 (Streptococcus) was > 150 µM (not active). For the same compound, the IC50 (Caspase-3) was 5.94 µM (active), the IC50 [8] was 6.17 µM (active) and the IC50 [9] was 20.8 µM (active). For the same compound, the IC50 [10] was 10.9 µM (active) and the EC50 [11] was > 67.5 µM (inactive).
In the case of `OC[C@@H]1CN(Cc2ccc(-c3ccccc3)cc2)C[C@H](n2cnc3c(NCc4ccc(F)cc4)ncnc32)O1`, the AC50 [12] is reported as 1.58 µM (active), the AC50 [13] is reported as 64.5 µM (active) and the AC50 [14] is reported as 4.44 µM (active). For the same compound, the IC50 [5] was 8.22 µM (active).
